Patent US8686022B2, “7-(piperazine-1-ymethyl)-1H-indole-2-carboxylic acid (phenyl)-amide derivatives and allied compounds as p38 MAP kinase inhibitors for the treatment of respiratory diseases” (Boehringer Ingelheim International GmbH, priority 2008, dated 2014)
Converted amounts (≈) assume the structure as drawn.

Assays:
p38 MAP-kinase = p38 MAP-kinase (Homo sapiens, UniProt Q16539); test: p38 MAP-kinase enzymatic assay (phosphorylation of GST-tagged ATF2, chemoluminescence); format: biochemical; conditions: inhibitor concentration 1 μM; activated p38 MAP-kinase 1 nM; ATP 100 μM; read-out: p38 (% Inh @ 1 μM)
Protocol: In this, the amount of a substrate phosphorylated by the kinase is quantified. The test is carried out as follows:
The kinase reaction is carried out in the presence of HEPES (20 mM, pH 7), MgCl2 (10 mM), DTT (1 mM) and TWEEN20 (0.01%). First, dimethylsulphoxide or inhibitor (final concentration: 1 μM) dissolved in dimethylsulphoxide are placed in a reaction vessel. Then the activated p38 MAP-kinase (final concentration 1 nM) is added and the mixture is incubated for 4 h at ambient temperature. Then a mixture of substrate (GST-tagged ATF2) and ATP is added and everything is incubated together for a further hour (final concentration ATP: 100 μM; final concentration ATF2: 10 nM).
The concentration of phosphorylated ATF2 is quantified by chemoluminescence-induced light emission. For this, a glutathione donor bead (final concentration: 5 μg/ml) which binds to the gluthathione on the ATF2 and phospho-ATF2 antibodies are added to the reaction mixture (final concentration: 3 nM; this binds the phosphate group added by the kinase reaction) to which a Protein A Acceptor Bead (final concentration: 5 μg/ml) binds. These components are dissolved in a buffer which contains 20 mM HEPES pH 7.0, 200 mM NaCL, 80 mM EDTA as well as 0.3% BSA. This reaction mixture is incubated in the dark for 1 hour at ambient temperature. When these beads come physically close, visible light is emitted which is measured in a photometer at 520-620 nm.
To determine the inhibitory activity of the compounds according to the invention a calculation is made to determine the percentage by which the kinase activity is inhibited at a fixed inhibitor concentration of 1 μM. The maximum activity is determined by non-inhibited kinase. The minimum activity or nonspecific background activity is determined using a reaction mixture without kinase.
Table 2 summarises the degree of inhibition of the enzyme p38 MAP-kinase—as described hereinbefore—mediated by the compounds according to the invention detailed in the section “Preparation of the final compounds”.

cytochrome P450 2C9 = cytochrome P450 2C9 (Homo sapiens, UniProt P11712); test: Determining the cyp2C9 activity (O-demethylation of [O-methyl-14C]-naproxen); format: in vitro ADME; conditions: human recombinant cytochrome P450 2C9; 37° C.; <0.4 μM when inhibition >50% at lowest concentration; read-out: CYP 2C9 IC50
Protocol: Determining the cyp2C9 Activity:
The assay is carried out in a robot system with 96-well plates. The final incubation volume is 200 μl of TRIS-Puffer (0.1 M), magnesium chloride (5 mM), recombinant protein (40 pmol/ml), ^14C-labelled naproxen (80 μM) and the test compound in one of 4 concentrations (50 μM, 10 μM, 2 μM and 0.4 μM) as a duplicate in each case. After a short preincubation period the reactions are started by the addition of the cofactor (NADPH, 1 mM) and ended after 15 min by the addition of 50 μl of a 10% aqueous trichloroacetic acid solution. One aliquot of the incubate is transferred onto a 96-well solid phase extraction plate and extracted. The ^14C-formaldehyde formed during the reaction is not retained on the solid phase extraction plate and is thus separated from the unmetabolised substrate by washing the solid phase extraction plate with water. One aliquot of the eluate is transferred into a well plate suitable for liquid scintillation. […] The IC50 is determined by the least squares method using the following formula: control activity=(100% control activity/(1+(I/IC50)S))−B where I=Inhibitor concentration S=Pitch B=Background activity
When the inhibition of the reaction is >50% even at the lowest concentration of the test compound, the IC50 is given as <0.4 μM.

[1] = Determining the solubility (saturated solution in McIlvaine buffer pH 7.4, UV spectroscopy); format: physicochemical; conditions: pH 7.4, aqueous buffer, thermodynamic from solid, shaken 2 hours, 0.75 mg solid in 0.75 ml
Protocol: Determining the Solubility:
Saturated solutions are prepared in suitable well dishes by adding 0.75 ml of a McIlvaine buffer (pH 7.4) to the well in question containing 0.75 mg of solid of an active substance. The wells are shaken for 2 hours and then filtration is carried out through a suitable filter membrane (typically polytetrafluoroethylene with a pore size of 0.45 μm). Filter absorption is prevented by discarding the first few drops of filtrate. The amount of active substance dissolved is determined by UV spectroscopy.

p38 MAP-kinase, sequence (Q16539 whole entry): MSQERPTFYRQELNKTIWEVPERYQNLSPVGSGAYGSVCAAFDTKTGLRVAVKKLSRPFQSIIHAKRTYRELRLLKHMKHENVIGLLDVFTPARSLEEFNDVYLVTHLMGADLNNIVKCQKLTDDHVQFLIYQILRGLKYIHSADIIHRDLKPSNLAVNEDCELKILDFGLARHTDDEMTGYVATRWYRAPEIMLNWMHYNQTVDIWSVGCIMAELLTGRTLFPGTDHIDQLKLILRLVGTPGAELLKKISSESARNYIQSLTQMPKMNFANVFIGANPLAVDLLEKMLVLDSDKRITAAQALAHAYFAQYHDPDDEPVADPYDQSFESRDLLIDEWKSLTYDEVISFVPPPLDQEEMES
cytochrome P450 2C9, sequence (P11712 whole entry): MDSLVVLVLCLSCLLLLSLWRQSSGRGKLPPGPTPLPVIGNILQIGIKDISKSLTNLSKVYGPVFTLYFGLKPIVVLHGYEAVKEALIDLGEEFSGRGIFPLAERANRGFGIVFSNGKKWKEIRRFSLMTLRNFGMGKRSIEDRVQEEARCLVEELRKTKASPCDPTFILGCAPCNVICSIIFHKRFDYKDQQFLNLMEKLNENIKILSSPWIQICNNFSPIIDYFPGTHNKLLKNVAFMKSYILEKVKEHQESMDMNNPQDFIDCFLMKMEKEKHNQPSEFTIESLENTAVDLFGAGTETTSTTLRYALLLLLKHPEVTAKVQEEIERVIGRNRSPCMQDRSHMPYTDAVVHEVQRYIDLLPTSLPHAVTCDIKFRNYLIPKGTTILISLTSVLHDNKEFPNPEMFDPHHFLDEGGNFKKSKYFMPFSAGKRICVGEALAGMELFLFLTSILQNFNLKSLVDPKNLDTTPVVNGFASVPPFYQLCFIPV

inhibition at 1 µM (p38 MAP-kinase)	IC50 (cytochrome P450 2C9)	solubility at 2 h [1]	SMILES
99.1%	0.5 µM	17 µg/mL (≈ 25.5 µM)	CCCS(=O)(=O)Nc1cc(C(C)(C)C)cc(NC(=O)c2cc3cccc(CN4CCN(C(=O)[C@@H]5CCCN5C)CC4)c3n2C)c1OC [Example 13, (S)-1-methyl-7-[4-(1-methyl-pyrrolidine-2-carbonyl)-piperazin-1-ylmethyl]-1H-indole-2-carboxylic acid-[5-tert-butyl-2-methoxy-3-(propane-1-sulphonylamino)-phenyl]-amide]
98.9%	0.7 µM	> 1000 µg/mL	COc1c(NC(=O)c2cc3cccc(CN4CCN(C(=O)CN5CC[C@@H](N(C)C)C5)CC4)c3n2C)cc(C(C)(C)C)cc1NS(C)(=O)=O [6(2), (R)-7-{4-[2-(3-dimethylamino-pyrrolidin-1-yl)-acetyl]-piperazin-1-ylmethyl}-1-methyl-1H-indole-2-carboxylic acid-(5-tert-butyl-3-methanesulphonylamino-2-methoxy-phenyl)-amide]
96.4%	0.65 µM	59 µg/mL (≈ 93.8 µM)	COc1c(NC(=O)c2cc3cccc(CN4CCN(C(=O)[C@@H]5CCCN5C)CC4)c3n2C)cc(C(C)(C)C)cc1NC(=O)C1CC1 [12(4), (S)-1-methyl-7-[4-(1-methyl-pyrrolidine-2-carbonyl)-piperazin-1-ylmethyl]-1H-indole-2-carboxylic acid-[5-tert-butyl-3-(cyclopropanecarbonyl-amino)-2-methoxy-phenyl]-amide]
92%	5.9 µM	450 µg/mL (≈ 730 µM)	COc1c(NC(=O)c2cc3cccc(CN4CCN(C(=O)[C@@H]5CCCN5C)CC4)c3n2C)cc(C(C)(C)C)cc1C(=O)N(C)C [Example 11, (S)-1-methyl-7-[4-(1-methyl-pyrrolidine-2-carbonyl)-piperazin-1-ylmethyl]-1H-indole-2-carboxylic acid-(5-tert-butyl-3-dimethylcarbamoyl-2-methoxy-phenyl)-amide]
98.9%	1.02 µM	84 µg/mL (≈ 128 µM)	COc1c(NC(=O)c2cc3cccc(CN4CCN(C(=O)[C@@H]5C[C@@H](O)CN5C)CC4)c3n2C)cc(C(C)(C)C)cc1NS(C)(=O)=O [1(8), 7-[4-((2S,4R)-4-hydroxy-1-methyl-pyrrolidine-2-carbonyl)-piperazin-1-ylmethyl]-1-methyl-1H-indole-2-carboxylic acid(5-tert-butyl-3-methanesulphonylamino-2-methoxy-phenyl)-amide]
98%	0.99 µM	160 µg/mL (≈ 245 µM)	COc1c(NC(=O)c2cc3cccc(CN4CCCN(C(=O)[C@@H]5CCN(C)C5)CC4)c3n2C)cc(C(C)(C)C)cc1NS(C)(=O)=O [5(2), (R)-1-methyl-7-[4-(1-methyl-pyrrolidine-3-carbonyl)-[1,4]diazepan-1-ylmethyl]-1H-indole-2-carboxylic acid-(5-tert-butyl-3-methanesulphonylamino-2-methoxy-phenyl)-amide]
99%	0.88 µM	28 µg/mL (≈ 41.9 µM)	COc1c(NC(=O)c2cc3cccc(CN4CCN(C(=O)N5CC[C@H](N(C)C)C5)CC4)c3n2C)cc(C(C)(C)C)cc1NS(C)(=O)=O [2(1), (S)-7-[4-(3-dimethylamino-pyrrolidine-1-carbonyl)-piperazin-1-ylmethyl]-1-methyl-1H-indole-2-carboxylic acid (5-tert-butyl-3-methanesulphonylamino-2-methoxy-phenyl)-amide]
98.2%	3.46 µM	630 µg/mL (≈ 1050 µM)	COc1c(NC(C)=O)cc(C(C)(C)C)cc1NC(=O)c1cc2cccc(CN3CCN(C(=O)[C@@H]4CCCN4C)CC3)c2n1C [12(2), (S)-1-methyl-7-[4-(1-methyl-pyrrolidine-2-carbonyl)-piperazin-1-ylmethyl]-1H-indole-2-carboxylic acid-(3-acetylamino-5-tert-butyl-2-methoxy-phenyl)-amide]
99.1%	1.32 µM	420 µg/mL (≈ 668 µM)	COc1c(NC(=O)c2cc3cccc(CN4CCN(C(=O)[C@@H]5CCCN5C)CC4)c3n2C)cc(C(C)(C)C)cc1C(=O)NC1CC1 [Example 10, (S)-1-methyl-7-[4-(1-methyl-pyrrolidine-2-carbonyl)-piperazin-1-ylmethyl]-1H-indole-2-carboxylic acid-(5-tert-butyl-3-cyclopropylcarbamoyl-2-methoxy-phenyl)-amide]
98.2%	7.76 µM	860 µg/mL (≈ 1360 µM)	CCN(CC)Cc1cc(C(C)(C)C)cc(NC(=O)c2cc3cccc(CN4CCN(C(=O)[C@@H]5CCCN5C)CC4)c3n2C)c1OC [9(2), (S)-1-methyl-7-[4-(1-methyl-pyrrolidine-2-carbonyl)-piperazin-1-ylmethyl]-1H-indole-2-carboxylic acid-(5-tert-butyl-3-diethylaminomethyl-2-methoxy-phenyl)-amide]
35.4%	7.91 µM	48 µg/mL (≈ 88.1 µM)	CN1CCC[C@H]1C(=O)N1CCN(Cc2cccc3cc(C(=O)Nc4cccc(N5CCOCC5)c4)n(C)c23)CC1 [1(25), (S)-1-methyl-7-[4-(1-methyl-pyrrolidine-2-carbonyl)-piperazin-1-ylmethyl]-1H-indole-2-carboxylic acid-(3-morpholin-4-yl-phenyl)-amide]
99.6%	2.13 µM	340 µg/mL (≈ 532 µM)	COc1c(NC(=O)c2cc3cccc(CN4CCN(C(=O)[C@@H]5CCCN5C)CC4)c3n2C)cc(C(C)(C)C)cc1NS(C)(=O)=O [1(1), (S)-1-methyl-7-[4-(1-methyl-pyrrolidine-2-carbonyl)-piperazin-1-ylmethyl]-1H-indole-2-carboxylic acid(5-tert-butyl-3-methanesulphonylamino-2-methoxy-phenyl)-amide]
99%	1.63 µM	670 µg/mL (≈ 1070 µM)	COc1c(NC(=O)c2cc3cccc(CN4CCN(C(=O)C5CCN5C)CC4)c3n2C)cc(C(C)(C)C)cc1NS(C)(=O)=O (stereo not drawn) [1(5), 1-methyl-7-[4-(1-methyl-azetidine-2-carbonyl)-piperazin-1-ylmethyl]-1H-indole-2-carboxylic acid(5-tert-butyl-3-methanesulphonylamino-2-methoxy-phenyl)-amide]
99.5%	0.46 µM	43 µg/mL (≈ 68.9 µM)	COc1c(NC(=O)c2cc3cccc(CN4CCN(C(=O)[C@@H]5CCCN5C)CC4)c3n2C)cc(C(C)(C)C)cc1S(C)(=O)=O [11(4), (S)-1-methyl-7-[4-(1-methyl-pyrrolidine-2-carbonyl)-piperazin-1-ylmethyl]-1H-indole-2-carboxylic acid-(5-tert-butyl-3-methanesulphonyl-2-methoxy-phenyl)-amide]
97.9%	0.5 µM	660 µg/mL (≈ 1070 µM)	CCC(=O)Nc1cc(C(C)(C)C)cc(NC(=O)c2cc3cccc(CN4CCN(C(=O)[C@@H]5CCCN5C)CC4)c3n2C)c1OC [Example 12, (S)-1-methyl-7-[4-(1-methyl-pyrrolidine-2-carbonyl)-piperazin-1-ylmethyl]-1H-indole-2-carboxylic acid-(5-tert-butyl-2-methoxy-3-propionylamino-phenyl)-amide]
